Here are results for 5 compounds from PubChem BioAssay AID1919002 (Molecular Pharmacology Branch, DTP, NCI, 2023).

Values joined by “and” are separate entries in the source; they are usually repeats but may differ in a detail not shown here. Identical values can stand only once.

This test has as its system 743489-274-T-PDC complex spheroid growth. Nature of the test: Anticancer human tumor 743489-274-T-PDC patient-derived renal cell carcinoma cell line growth inhibition [AhR]. As to conditions: for viability, T/C: stronger effect = lower value. In a few lines: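 Complex tumor spheroids co-cultured with HUVEC and human MSC stroma; AhR antagonists tested in combination with standard-of-care and investigational agents. Top concentration at or near clinical Cmax (else 10 microM), half-log dilutions; growth expressed as percent test/control.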

The mark [1] stands for this setting: curve of first compound, second compound 0.1 µM.
[2] abbreviates: curve of first compound, second compound 0.316 µM.
Where [3] appears, read: curve of first compound, second compound 1 µM.
[4] abbreviates: curve of first compound, second compound 3.16 µM.
Setting [5] is: curve of first compound, second compound 10 µM.
[6] abbreviates: second compound 0.1 µM, first compound 0.0316 µM.
Where [7] appears, read: second compound 0.1 µM, first compound 0.1 µM.
The mark [8] stands for this setting: second compound 0.1 µM, first compound 0.316 µM.
Setting [9] is: second compound 0.1 µM, first compound 1 µM.
Setting [10] is: second compound 0.316 µM, first compound 0.0316 µM.
Setting [11] is: second compound 0.316 µM, first compound 0.1 µM.
The mark [12] stands for this setting: second compound 0.316 µM, first compound 0.316 µM.
[13] abbreviates: second compound 0.316 µM, first compound 1 µM.
Where [14] appears, read: second compound 1 µM, first compound 0.0316 µM.
Setting [15] is: second compound 1 µM, first compound 0.1 µM.
The mark [16] stands for this setting: second compound 1 µM, first compound 0.316 µM.
The mark [17] stands for this setting: second compound 1 µM, first compound 1 µM.
The mark [18] stands for this setting: second compound 3.16 µM, first compound 0.0316 µM.
The mark [19] stands for this setting: second compound 3.16 µM, first compound 0.1 µM.
Where [20] appears, read: second compound 3.16 µM, first compound 0.316 µM.
Setting [21] is: second compound 3.16 µM, first compound 1 µM.
The mark [22] stands for this setting: second compound 10 µM, first compound 0.0316 µM.
The mark [23] stands for this setting: second compound 10 µM, first compound 0.1 µM.
The mark [24] stands for this setting: second compound 10 µM, first compound 0.316 µM.
Setting [25] is: second compound 10 µM, first compound 1 µM.
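Also: spheroids exposed to agents for 7 days before readout.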
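For viability, T/C in this document: 100% = DMSO vehicle control wells.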

For `Nc1ncn(C2CC(O)C(CO)O2)c(=O)n1` (centres undefined), the viability, T/C (usually the ratio of treated to control) (compound 0.00316 µM) was 94.8% and 98.8% and 101%; the viability, T/C (compound 0.01 µM) is 112% and 106% (2×); the viability, T/C (compound 0.0316 µM) was 102% and 106% and 105%; the viability, T/C (compound 0.1 µM) is 90.8% and 93.7% and 102%; the viability, T/C (compound 0.316 µM) is 100% and 96.7% and 104%; the viability, T/C (compound 1 µM) is 94% and 93.5% (2×). Further, the IC50 (as a rule, the concentration at which inhibition is half-maximal) (curve of compound) was more than 1000 nM.

On to `CC1COCCN1c1cc(C2(S(C)(=N)=O)CC2)nc(-c2ccnc3[nH]ccc23)n1` (centres undefined) + Cc1cncc(-c2nc(NCCc3c[nH]c4ccccc34)c3ncn(C(C)C)c3n2)c1, for which the IC50 under setting [1] is more than 10000 nM; the IC50 under setting [2] was more than 10000 nM; the IC50 under setting [3] was more than 10000 nM; the IC50 under setting [4] is more than 10000 nM; the IC50 under setting [5] was more than 10000 nM. The viability, T/C reads like this: under setting [6], 104%; under setting [7], 93.8%; under setting [8], 89.3%; under setting [9], 86%; (second compound 0.1 µM, first compound 3.16 µM) 85.9%; (second compound 0.1 µM, first compound 10 µM) 85.4%. Also, the viability, T/C was 87.9% under setting [10]; 89.8% under setting [11]; 85.1% under setting [12]; 86.4% under setting [13]; 90% (second compound 0.316 µM, first compound 3.16 µM); 84.3% (second compound 0.316 µM, first compound 10 µM). Moreover, the viability, T/C is 88.7% under setting [14]; 91.7% under setting [15]; 97.3% under setting [16]; 98.1% under setting [17]; 84.1% (second compound 1 µM, first compound 3.16 µM); 83.7% (second compound 1 µM, first compound 10 µM). The viability, T/C was 109% under setting [18]; 108% under setting [19]; 105% under setting [20]; 90.9% under setting [21]; 91.4% (second compound 3.16 µM, first compound 3.16 µM); 85.7% (second compound 3.16 µM, first compound 10 µM). Further, the viability, T/C runs as follows: under setting [22], 97.3%; under setting [23], 117%; under setting [24], 92.5%; under setting [25], 107%; (second compound 10 µM, first compound 3.16 µM) 105%; (second compound 10 µM, first compound 10 µM) 99.1%.

For the compound `CC(C)c1c(-c2ccccc2)nc2c(C#N)c[nH]n2c1=O`, the viability, T/C reads like this: (compound 0.0316 µM) 110% and 112% and 107%; (compound 0.1 µM) 110% and 105% and 109%; (compound 0.316 µM) 101% (2×) and 103%; (compound 1 µM) 109% and 104% and 112%; (compound 3.16 µM) 107% and 106% and 111%; (compound 10 µM) 101% and 107% and 102%. The IC50 (curve of compound) was more than 10000 nM.

Consider `CC(C)CC(NC(=O)C(Cc1ccccc1)NC(=O)c1cnccn1)B(O)O` (centres undefined) + Cc1cncc(-c2nc(NCCc3c[nH]c4ccccc34)c3ncn(C(C)C)c3n2)c1, for which the IC50 reads like this: under setting [1], 49.3 nM; under setting [2], 27.2 nM; under setting [3], 21 nM; under setting [4], 20.9 nM; under setting [5], 13.9 nM. The viability, T/C (second compound 0.1 µM, first compound 0.000949 µM) is 94.6%; the viability, T/C (second compound 0.1 µM, first compound 0.003 µM) was 96.3%; the viability, T/C (second compound 0.1 µM, first compound 0.00949 µM) is 106%; the viability, T/C (second compound 0.1 µM, first compound 0.03 µM) was 75.8%; the viability, T/C (second compound 0.1 µM, first compound 0.0949 µM) is 16.6%; the viability, T/C (second compound 0.1 µM, first compound 0.3 µM) is 11.4%. Besides, the viability, T/C (second compound 0.316 µM, first compound 0.000949 µM) was 98.8%; the viability, T/C (second compound 0.316 µM, first compound 0.003 µM) is 96.9%; the viability, T/C (second compound 0.316 µM, first compound 0.00949 µM) was 108%; the viability, T/C (second compound 0.316 µM, first compound 0.03 µM) was 45.2%; the viability, T/C (second compound 0.316 µM, first compound 0.0949 µM) is 18.4%; the viability, T/C (second compound 0.316 µM, first compound 0.3 µM) is 10.7%. For the same compound, the viability, T/C by setting is: (second compound 1 µM, first compound 0.000949 µM) 99.8%; (second compound 1 µM, first compound 0.003 µM) 103%; (second compound 1 µM, first compound 0.00949 µM) 93%; (second compound 1 µM, first compound 0.03 µM) 30.3%; (second compound 1 µM, first compound 0.0949 µM) 17.6%; (second compound 1 µM, first compound 0.3 µM) 8.63%. In addition, the viability, T/C (second compound 3.16 µM, first compound 0.000949 µM) was 107%; the viability, T/C (second compound 3.16 µM, first compound 0.003 µM) is 107%; the viability, T/C (second compound 3.16 µM, first compound 0.00949 µM) was 102%; the viability, T/C (second compound 3.16 µM, first compound 0.03 µM) was 25.9%; the viability, T/C (second compound 3.16 µM, first compound 0.0949 µM) was 13.1%; the viability, T/C (second compound 3.16 µM, first compound 0.3 µM) was 4.96%. Also, the viability, T/C (second compound 10 µM, first compound 0.000949 µM) was 124%; the viability, T/C (second compound 10 µM, first compound 0.003 µM) is 113%; the viability, T/C (second compound 10 µM, first compound 0.00949 µM) was 73.2%; the viability, T/C (second compound 10 µM, first compound 0.03 µM) is 2.6%; the viability, T/C (second compound 10 µM, first compound 0.0949 µM) is 1.14%; the viability, T/C (second compound 10 µM, first compound 0.3 µM) is 0.75%.

For the compound `Nc1ncn(C2CC(O)C(CO)O2)c(=O)n1` (centres undefined) + Cc1cncc(-c2nc(NCCc3c[nH]c4ccccc34)c3ncn(C(C)C)c3n2)c1, the IC50 reads like this: under setting [1], more than 1000 nM; under setting [2], more than 1000 nM; under setting [3], more than 1000 nM; under setting [4], more than 1000 nM; under setting [5], more than 1000 nM. The viability, T/C (second compound 0.1 µM, first compound 0.00316 µM) was 105%; the viability, T/C (second compound 0.1 µM, first compound 0.01 µM) is 98.7%; the viability, T/C under setting [6] is 104%; the viability, T/C under setting [7] was 95.1%; the viability, T/C under setting [8] was 92%; the viability, T/C under setting [9] was 96%. Also, the viability, T/C reads like this: (second compound 0.316 µM, first compound 0.00316 µM) 99.4%; (second compound 0.316 µM, first compound 0.01 µM) 99.8%; under setting [10], 93.5%; under setting [11], 96.3%; under setting [12], 94.8%; under setting [13], 94.4%. In addition, the viability, T/C was 109% (second compound 1 µM, first compound 0.00316 µM); 107% (second compound 1 µM, first compound 0.01 µM); 98.5% under setting [14]; 93% under setting [15]; 106% under setting [16]; 93.7% under setting [17]. Further, the viability, T/C is, setting by setting: (second compound 3.16 µM, first compound 0.00316 µM) 104%; (second compound 3.16 µM, first compound 0.01 µM) 108%; under setting [18], 104%; under setting [19], 100%; under setting [20], 103%; under setting [21], 98.4%. In addition, the viability, T/C (second compound 10 µM, first compound 0.00316 µM) is 113%; the viability, T/C (second compound 10 µM, first compound 0.01 µM) is 114%; the viability, T/C under setting [22] was 131%; the viability, T/C under setting [23] is 109%; the viability, T/C under setting [24] is 107%; the viability, T/C under setting [25] was 120%.
